Source: ChEMBL document CHEMBL1142788, “Synthesis and antibacterial activity of alkyl derivatives of the glycopeptide antibiotic A40926 and their amides” (2005)
≈ marks a conversion by molar mass, not a printed value.

What was measured:
Enterococcus faecium [1] = test: Minimum inhibitory concentration against vancomycin-A Enterococcus faecium in the presence of 30% bovine serum (n=1) (range = 4>128mg/L); assay type: functional
Enterococcus faecalis [2] = test: Minimum inhibitory concentration against vancomycin-sensitive Enterococcus faecalis in the presence of 30% bovine serum(n=3)(range = 0.25-0.5mg/l); assay type: functional
Enterococcus faecalis [3] = test: Minimum inhibitory concentration against vancomycin-A Enterococcus faecalis in the presence of 30% bovine serum(n=4) (range = 128>128 mg/L); assay type: functional
[4] = test system: Staphylococcus epidermidis; test: Minimum inhibitory concentration against methicillin-sensitive Staphylococcus epidermidis in the presence of 30% bovine serum; assay type: functional
[5] = test system: Staphylococcus haemolyticus; test: Minimum inhibitory concentration against Staphylococcus haemolyticus in the presence of 30% bovine serum; assay type: functional
[6] = test system: Staphylococcus epidermidis; test: Minimum inhibitory concentration against methicillin-resistant Staphylococcus epidermidis in the presence of 30% bovine serum; assay type: functional
Enterococcus faecium [7] = test: Minimum inhibitory concentration against vancomycin-sensitive Enterococcus faecium in the presence of 30% bovine serum(n=1); assay type: functional
Staphylococcus aureus [8] = test: Minimum inhibitory concentration against methicillin-resistant Staphylococcus aureus
Staphylococcus aureus [9] = test: Minimum inhibitory concentration against methicillin-sensitive Staphylococcus aureus
Enterococcus faecium [10] = test: Minimum inhibitory concentration against vancomycin-A Enterococcus faecium in the presence of 30% bovine serum (n=1) (range = 64>128mg/L); assay type: functional
Enterococcus faecalis [11] = test: Minimum inhibitory concentration against vancomycin-sensitive Enterococcus faecalis in the presence of 30% bovine serum(n=3)(range = 0.5-1 mg/l); assay type: functional
Enterococcus faecalis [12] = test: Minimum inhibitory concentration against vancomycin-A Enterococcus faecalis in the presence of 30% bovine serum (n=4); assay type: functional
Enterococcus faecium [13] = test: Minimum inhibitory concentration against vancomycin-A Enterococcus faecium in the presence of 30% bovine serum (n=1); assay type: functional
Enterococcus faecalis [14] = test: Minimum inhibitory concentration against vancomycin-sensitive Enterococcus faecalis in the presence of 30% bovine serum(n=3); assay type: functional

Row | SMILES | MIC (Enterococcus faecium [1]) [µg/mL] | MIC (Enterococcus faecalis [2]) [µg/mL] | MIC (Enterococcus faecalis [3]) [µg/mL] | MIC [4] [µg/mL] | MIC [5] [µg/mL] | MIC [6] [µg/mL] | MIC (Enterococcus faecium [7]) [µg/mL] | MIC (Staphylococcus aureus [8]) [µg/mL] | MIC (Staphylococcus aureus [9]) [µg/mL] | MIC (Enterococcus faecium [10]) [µg/mL] | MIC (Enterococcus faecalis [11]) [µg/mL] | MIC (Enterococcus faecalis [12]) [µg/mL] | MIC (Enterococcus faecium [13]) [µg/mL] | MIC (Enterococcus faecalis [14]) [µg/mL]
1 | CN(Cc1ccc(-c2ccccc2)cc1)[C@H]1C(=O)N[C@@H]2Cc3ccc(cc3)Oc3cc4cc(c3O[C@@H]3OC(C(=O)O)C(O)[C@H](O)C3N)Oc3ccc(cc3Cl)[C@@H](O)C3NC(=O)[C@H](NC(=O)[C@@H]4NC(=O)[C@@H](NC2=O)c2cc(cc(O)c2Cl)Oc2cc1ccc2O)c1ccc(O)c(c1)-c1c(O[C@H]2O[C@H](CO)[C@@H](O)[C@H](O)[C@@H]2O)cc(O)cc1[C@@H](C(=O)O)NC3=O (some centres undefined) | > 128 | 0.5 | 128 | 2 | 32 | 16 | 0.5 | 1 (≈ 0.583 µM) | 1 (≈ 0.583 µM) |  |  |  |  | 
2 | CN[C@H]1C(=O)N[C@@H]2Cc3ccc(cc3)Oc3cc4cc(c3O[C@@H]3OC(C(=O)O)C(O)[C@H](O)C3NCc3ccc5ccccc5c3)Oc3ccc(cc3Cl)[C@@H](O)C3NC(=O)[C@H](NC(=O)[C@@H]4NC(=O)[C@@H](NC2=O)c2cc(cc(O)c2Cl)Oc2cc1ccc2O)c1ccc(O)c(c1)-c1c(O[C@H]2O[C@H](CO)[C@@H](O)[C@H](O)[C@@H]2O)cc(O)cc1[C@@H](C(=O)O)NC3=O (some centres undefined) |  |  |  | 2 | 32 | 16 | 2 | 1 (≈ 0.592 µM) | 2 (≈ 1.18 µM) | > 128 | 1 | 128 |  | 
3 | CCCCc1ccc(CN(C)[C@H]2C(=O)N[C@@H]3Cc4ccc(cc4)Oc4cc5cc(c4O[C@@H]4OC(C(=O)O)C(O)[C@H](O)C4N)Oc4ccc(cc4Cl)[C@@H](O)C4NC(=O)[C@H](NC(=O)[C@@H]5NC(=O)[C@@H](NC3=O)c3cc(cc(O)c3Cl)Oc3cc2ccc3O)c2ccc(O)c(c2)-c2c(O[C@H]3O[C@H](CO)[C@@H](O)[C@H](O)[C@@H]3O)cc(O)cc2[C@@H](C(=O)O)NC4=O)cc1 (some centres undefined) | > 128 | 0.5 | 128 | 1 | 32 | 8 | 0.5 | 1 (≈ 0.589 µM) | 1 (≈ 0.589 µM) |  |  |  |  | 
4 | CN[C@H]1C(=O)N[C@@H]2Cc3ccc(cc3)Oc3cc4cc(c3O[C@@H]3OC(C(=O)NCCCN(C)C)C(O)[C@H](O)C3N)Oc3ccc(cc3Cl)[C@@H](O)C3NC(=O)[C@H](NC(=O)[C@@H]4NC(=O)[C@@H](NC2=O)c2cc(cc(O)c2Cl)Oc2cc1ccc2O)c1ccc(O)c(c1)-c1c(O[C@H]2O[C@H](CO)[C@@H](O)[C@H](O)[C@@H]2O)cc(O)cc1[C@@H](C(=O)NCCCN(C)C)NC3=O (some centres undefined) |  |  | 128 | 1 | 0.05 |  | 1 | 2 (≈ 1.16 µM) | 1 (≈ 0.582 µM) |  |  |  | > 128 | 1
5 | CCCCOc1ccc(CNC2[C@H](Oc3c4cc5cc3Oc3ccc(cc3Cl)[C@@H](O)C3NC(=O)[C@H](NC(=O)[C@@H]5NC(=O)[C@H]5NC(=O)[C@@H](Cc6ccc(cc6)O4)NC(=O)[C@H](NC)c4ccc(O)c(c4)Oc4cc(O)c(Cl)c5c4)c4ccc(O)c(c4)-c4c(O[C@H]5O[C@H](CO)[C@@H](O)[C@H](O)[C@@H]5O)cc(O)cc4[C@@H](C(=O)O)NC3=O)OC(C(=O)O)C(O)[C@@H]2O)cc1 (some centres undefined) |  |  |  | 1 | 32 | 16 | 1 | 1 (≈ 0.584 µM) | 1 (≈ 0.584 µM) | > 128 | 1 | 128 |  | 
